Read-outs that look alike come from different tables or passages of the source.
Tested on: guinea pig ileal longitudinal smooth muscle
Assay: Calcium channel antagonist testing: inhibition of muscarinic receptor-mediated Ca2+-dependent contraction (response to CD) of guinea pig ileal longitudinal smooth muscle
Format: cell-based
Conditions: for IC50: 50% inhibition of tonic contraction to CD 5×10^-7 M, compound added 10 min before CD, 37° C., pH 7.4, read-out: Calcium channel antagonist act., inhib. act. on contractile response to CD, ID50; for calcium channel antagonist activity, comparison to Nifedipine (TM): conclusion from Table 7
Procedure: Male albino guinea pigs (body weight 300-450 g) were sacrificed by decapitation. The intestine was removed above the ileo-caecal junction. Longitudinal smooth muscle segments of 2 cm length were mounted under a resting tension of 300-400 mg. […] The muscles were equilibrated for 1 h with a solution change every 15 min. Two successive control contractions were elicited at 15 min intervals with 5×10^-7 M cis-2-methyl- 4-dimethylaminomethyl-1,3-dioxolane methiodide (CD). The isometric contractions were recorded with a force displacement transducer (FT 03C) on a GRASS physiograph. The means of the two contractile responses was taken as the 100% value for the tonic (slow) component of the response. The muscle was washed with Hepes saline solution and was allowed to re-equilibrate. The calcium antagonist (test compound) was added ten min before the dose-response for CD was determined. The drug-induced inhibition of contraction was expressed as percent of control. The ID50 values were graphically determined from the concentration-response curves.

Molecule	IC50 (Cavia porcellus)	calcium channel antagonist activity, comparison to Nifedipine (TM)	IC50
CC1=C(C(=O)OC(C)C)C(c2ccccc2[N+](=O)[O-])=C(C(=O)OC(C)C)C(C)N1C (stereo not drawn) [Compound W-4, Diisopropyl 1,2,6-trimethyl-4-(2-nitrophenyl)-1,2-dihydropyridine-3,5-dicarboxylate]	5.73 µM		
CC1=C(C(=O)OCC(C)C)C(c2ccncc2)C(C(=O)OCC(C)C)=C(C)N1 [Compound D-23, 3,5-Diisobutyl 2,6-dimethyl-4-(4'-pyridyl)-1,4-dihydropyridine-3,5-dicarboxylate]	0.58 µM	active calcium channel antagonists, being comparable to Nifedipine (TM)	
Diisobutyl 2,6-dimethyl-4-{3'-[N--phenoxycarbonyl-1',2'-(1',6'-)dihydropyridyl]}-1,4-dihydropyridine-3,5-dicarboxylate [Compound D-39]			6.46 µM
3-Isobutyl-5-methyl 2,6-dimethyl-4-{3'-[N--phenoxycarbonyl-1',2'-(1',6'-)dihydropyridyl]}-1,4-dihydropyridine-3,5-dicarboxylate [Compound D-44]		active calcium channel antagonists, being comparable to Nifedipine (TM)	0.045 µM
Diethyl 2,6-dimethyl-4-{3'-[N--t-butoxycarbonyl-1',2'-(1',6'-)dihydropyridyl]}-1,4-dihydropyridine-3,5-dicarboxylate [Compound D-40]		active calcium channel antagonists, being comparable to Nifedipine (TM)	0.672 µM
COC(=O)C1=C(C)NC(C)=C(C(=O)OCC(C)C)C1C1=CCN(C(=O)OC)C=C1 [Compound D-60, 3-Isobutyl-5-methyl 2,6-dimethyl-4-[4'-(N--methoxycarbonyl)]-1,4-dihydropyridine-3,5-dicarboxylate]	1.76 µM		
CC1=C(C#N)C(c2cccnc2)C(C#N)=C(C)N1 [Compound D-27, 3,5-dicyano-2,6-dimethyl-4-(3'-pyridyl)-1,4-dihydropyridine]	357 µM		
CC1=C(C(=O)OC(C)C)C(c2cccnc2)C(C(=O)OC(C)C)=C(C)N1 [Compound D-18]	0.26 µM	active calcium channel antagonists, being comparable to Nifedipine (TM)	
COC(=O)C1=C(C)NC(C)=C(C#N)C1c1ccncc1 [Compound D-26]	87.7 µM		
Diisobutyl 2,6-dimethyl-4-{3'-[N--t-butoxycarbonyl-1',2'-(1',6'-)dihydropyridyl]}-1,4-dihydropyridine-3,5-dicarboxylate [Compound D-42]			3.42 µM
CCOC(=O)C1=C(C)NC(C)=C(C(=O)OCC)C1c1ccccn1 [Compound D-13, 3,5-diethyl 2,6-dimethyl-4-(2'-pyridyl)-1,4-dihydropyridine-3,5-dicarboxylate]	0.18 µM		
COC(=O)C1=C(C)NC(C)=C(C(=O)OCC(C)C)C1c1cccnc1 [Compound D-7, 3-Isobutyl-5-methyl 2,6-dimethyl-4-(3'-pyridyl)-1,4-dihydropyridine-3,5-dicarboxylate]	56 µM	active calcium channel antagonists, being comparable to Nifedipine (TM)	
COC(=O)C1=C(C)NC(C)=C(C(=O)OCCN(C)C)C1c1cccnc1 [Compound D-8, 3-[2-(N,N--dimethylamino)ethyl]-5-methyl 2,6-dimethyl-4-(3'-pyridyl)-1,4-dihydropyridine-3,5-dicarboxylate]	33.4 µM		
COC(=O)C1=C(C)NC(C)=C(C(=O)OCC(C)C)C1c1ccncc1 [Compound D-11, 3-Isobutyl-5-methyl 2,6-dimethyl-4-(4'-pyridyl)-1,4-dihydropyridine-3,5-dicarboxylate]	0.22 µM	active calcium channel antagonists, being comparable to Nifedipine (TM)	
3,5-Dicyano-2,6-dimethyl-4-{3'-[N--methoxycarbonyl-1',2'-(1',6'-)dihydropyridyl]}-1,4-dihydropyridine [Compound D-48]			34 µM
COC(=O)C1=C(C)N(C)C(C)C(C(=O)OC)=C1c1ccc([N+](=O)[O-])cc1 (stereo not drawn) [Compound S-4, Dimethyl 1,2,6-trimethyl-4-(4-nitrophenyl)-1,2-dihydropyridine-3,5-dicarboxylate]	23.5 µM		
COC(=O)C1=C(C)NC(C)=C(C(=O)OC)C1c1ccccn1 [Compound D-1, 3,5-dimethyl 2,6-dimethyl-4-(2'-pyridyl)-1,4-dihydropyridine-3,5-dicarboxylate]	2.32 µM		
3-Isobutyl-5-methyl 2,6-dimethyl-4-{3'-[N--methoxycarbonyl-1',2'-(1',6'-)dihydropyridyl]}-1,4-dihydropyridine-3,5-dicarboxylate [Compound D-43]		active calcium channel antagonists, being comparable to Nifedipine (TM)	0.031 µM
Diethyl 2,6-dimethyl-4-{3'-[N--phenoxycarbonyl-1',2'-(1',6'-)dihydropyridyl]}-1,4-dihydropyridine-3,5-dicarboxylate [Compound D-37]		active calcium channel antagonists, being comparable to Nifedipine (TM)	0.865 µM
3-Methyl 5-cyano-2,6-dimethyl-4-{3'-[N--methoxycarbonyl-1',2'-(1',6'-)dihydropyridyl]}-1,4-dihydropyridine-3-carboxylate [Compound D-46]			52 µM
COC(=O)C1=C(C)NC(C)=C(C(=O)OC(C)C)C1c1cccnc1 [Compound D-6, 3-Isopropyl-5-methyl 2,6-dimethyl-4-(3'-pyridyl)-1,4-dihydropyridine-3,5-dicarboxylate]	0.097 µM	active calcium channel antagonists, being comparable to Nifedipine (TM)	
CCOC(=O)C1=C(C)NC(C)=C(C(=O)OCC)C1C1=CCCN(C)C1 [Compound D-69, Diethyl 2,6-dimethyl-4-[5'-(N--methyl-1',2',3',6'-tetrahydropyridyl)]-1,4-dihydropyridine-3,5-dicarboxylate]	1.1 µM		
COC(=O)C1=C(C)N(C)C(C)C(C(=O)OC)=C1c1ccccc1[N+](=O)[O-] (stereo not drawn) [Compound S-6, Dimethyl 1,2,6-trimethyl-4-(2-nitrophenyl)-1,2-dihydropyridine-3,5-dicarboxylate]	2.52 µM		
COC(=O)C1=C(C)N(C)C(C)C(C(=O)OC)=C1c1cccc(C(F)(F)F)c1 (stereo not drawn) [Compound S-2, Dimethyl 1,2,6-trimethyl-4-(3-trifluoromethylphenyl)-1,2-dihydropyridine-3,5-dicarboxylate]	3.5 µM		
COC(=O)C1=C(C)N(C)C(C)C(C(=O)OC)=C1c1ccccc1C(F)(F)F (stereo not drawn) [Compound S-3, Dimethyl 1,2,6-trimethyl-4-(2-trifluoromethylphenyl)-1,2-dihydropyridine-3,5-dicarboxylate]	12 µM		
COC(=O)C1=C(C)NC(C)=C(C(=O)OCC(C)C)C1C1=CCN(C(=O)Oc2ccccc2)C=C1 [Compound D-61, 3-Isobutyl-5-methyl 2,6-dimethyl-4-[4'-(N--phenoxycarbonyl)]-1,4-dihydropyridine-3,5-dicarboxylate]	81 µM		
COC(=O)C1=C(c2ccccc2[N+](=O)[O-])C(C(=O)OC(C)C)=C(C)N(C)C1C (stereo not drawn) [Compound W-2, 3-Methyl-5-isopropyl 1,2,6-trimethyl-4-(2-nitrophenyl)-1,2-dihydropyridine-3,5-dicarboxylate]	20 µM		
